Measurements reported in doi:10.1101/2023.08.20.554024v1, “Structural framework for the understanding spectroscopic and functional signatures of the cyanobacterial Orange Carotenoid Protein families” (biorxiv, 2023).

How the values were obtained:
[1] = target: T1, SynOCP1 (Synechocystis sp. PCC 6803, UniProt P74102); assay: absorbance spectrum and photocycle of the holoprotein; assay type: binding; conditions: bound in E. coli making echinenone; pH 7.6, 150 mM NaCl
T1 construct: gene slr1963; full length from E. coli, tag removed, from earlier work; monomer in solution
T1 sequence (P74102 2-317): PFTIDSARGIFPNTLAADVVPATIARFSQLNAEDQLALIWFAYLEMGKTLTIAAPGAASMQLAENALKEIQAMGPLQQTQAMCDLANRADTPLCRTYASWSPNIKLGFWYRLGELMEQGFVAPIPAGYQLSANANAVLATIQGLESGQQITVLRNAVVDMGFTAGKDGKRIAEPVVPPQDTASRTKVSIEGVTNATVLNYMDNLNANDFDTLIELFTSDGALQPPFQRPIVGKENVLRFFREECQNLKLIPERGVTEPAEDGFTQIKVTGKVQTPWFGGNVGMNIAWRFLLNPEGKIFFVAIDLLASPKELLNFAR

[2] = target: T2, CrinOCP2 (Crinalium epipsammum, UniProt K9VSN3, E26A); assay: X-ray crystal structure, […] A; assay type: binding; conditions: bound in E. coli making echinenone; crystals pH 6.5; carotenoid site between NTD and CTD, keto group at Tyr201/Trp288
T2 construct: gene Cri9333_0045; full length from E. coli C41(DE3), codon-optimized, pET28a+, His-tag cut by thrombin leaving N-terminal GSH; monomer
T2 sequence (K9VSN3 1-319 E26A): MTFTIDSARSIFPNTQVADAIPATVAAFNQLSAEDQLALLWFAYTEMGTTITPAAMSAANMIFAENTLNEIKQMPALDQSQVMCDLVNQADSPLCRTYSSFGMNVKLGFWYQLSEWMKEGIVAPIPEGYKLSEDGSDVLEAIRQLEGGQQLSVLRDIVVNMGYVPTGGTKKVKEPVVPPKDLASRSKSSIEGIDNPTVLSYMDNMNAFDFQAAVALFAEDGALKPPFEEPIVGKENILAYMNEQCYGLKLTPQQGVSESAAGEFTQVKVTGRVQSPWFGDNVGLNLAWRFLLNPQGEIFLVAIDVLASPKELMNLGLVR

CC1=C(/C=C/C(C)=C/C=C/C(C)=C/C=C/C=C(C)/C=C/C=C(C)/C=C/C2=C(C)C(=O)CCC2(C)C)C(C)(C)CCC1 [ECH, echinenone]
absorbance spectrum and photocycle of the holoprotein [1]: All proteins were ECH-bound.
X-ray crystal structure, 2.2 A [2]: HPLC analysis indicated that both OCP2 variants contained ECH as the predominant carotenoid
